Results from patent publication US4497809A, “Cephalosporin derivatives” (Takeda Chemical Industries, Ltd., priority 1982, dated 1985).

Legend:
in vivo = assay: in vivo; set-up: species or system mouse (male SLC-ICR mice); details: mouse; for Bioavailability / AUC (area under plasma-concentration curve of non-ester form, 0 to 2 hr): 100 mg/kg; for AUC (area under plasma-concentration curve of non-ester form, 0 to 2 hr): po
Description: Test compounds: compounds obtained in examples 6, 8, 10, 13, 14, 16, 21, 23 and compound for control: pivaloyloxymethyl 7β-[2-(2-aminothiazol-4-yl)acetamido]-3-[[[1-(2-dimethylaminoethyl)-1H-tetrazol-5-yl]thio]methyl]-ceph-3-em-4-carboxylate (This will be referred to simply "compound A" hereinafter).
Male SLC-ICR mice (4 weeks old) were starved but under free access to drinking water for 16-18 hr. period to the experiments. The test compound was administered orally by intubation as an aqueous solution with 2.5 equimolar of tartaric acid at a dose of 100 mg/kg as non-ester form of the Compound I, to a group of four mice. […] The concentration of the non-ester form of the Compound I in the plasma was measured by the cylinder-plate method using Proteus mirabilis ATCC 21100 as an assay organism.
Control test: an aqueous solution of non-ester form of the Compound I in an amount of 10 ml water/Kg mouse body weight, was subcutaneously applied and AUC was calculated in the same manner as above.
Area under plasma-concentration curve (AUC) for 0 to 2 hr. after
administration was calculated by the trapezoidal rule.

[1] = tested on: gram-positive bacteria (e.g., Staphylococcus aureus); assay: Antibacterial activity against gram-positive bacteria; type: cell-based; details: in words
[2] = tested on: gram-negative bacteria (e.g., Escherichia coli, Klebsiella pneumonia, Proteus vulgaris, Proteus mirabilis, Proteus morganii); assay: Antibacterial activity against gram-negative bacteria; type: cell-based; details: in words

Compound | Bioavailability (in vivo; 120 min) [%] | AUC (area under plasma-concentration curve of non-ester form, 0 to 2 hr) (in vivo; 120 min) [ng·h/mL] | antibacterial activity against gram-positive bacteria [1] | antibacterial activity against gram-negative bacteria [2] | AUC at 2 h (in vivo; sc) [ng·h/mL] | Bioavailability, control (in vivo; sc, 120 min) [%]
CN(C)CCn1nnnc1SCC1=C(C(=O)OCOC(=O)C(C)(C)C)N2C(=O)[C@@H](NC(=O)Cc3csc(N)n3)[C@H]2SC1 [Compound A, pivaloyloxymethyl 7β-[2-(2-aminothiazol-4-yl)acetamido]-3-[[[1-(2-dimethylaminoethyl)-1H-tetrazol-5-yl]thio]methyl]-ceph-3-em-4-carboxylate, reference compound] | 41.8 |  |  |  |  | 
CCCCCC(=O)OC(C)OC(=O)C1=C(CSc2nnnn2CCN(C)C)CS[C@@H]2[C@H](NC(=O)Cc3csc(N)n3)C(=O)N12 (stereo partly drawn) [Example 6, 1-(n-hexanoyloxy)ethyl 7β-[2-(2-aminoethiazol-4-yl)acetamido]-3-[[[1-(2-dimethylaminoethyl)-1H-tetrazol-5-yl]thio]methyl]ceph-3-em-4-carboxylate] | 67.5 | 26200 |  |  |  | 
CC(C)CCC(=O)OC(C)OC(=O)C1=C(CSc2nnnn2CCN(C)C)CS[C@@H]2[C@H](NC(=O)Cc3csc(N)n3)C(=O)N12 (stereo partly drawn) [Example 8, 1-(4-methylpentanoyloxy)ethyl 7β-[2-(2-aminothiazol-4-yl)acetamido]-3-[[[1-(2-dimethylaminoethyl)-1H-tetrazol-5-yl]thio]methyl]ceph-3-em-4-carboxylate] | 52.8 | 20500 |  |  |  | 
CCC(C)CC(=O)OC(C)OC(=O)C1=C(CSc2nnnn2CCN(C)C)CS[C@@H]2[C@H](NC(=O)Cc3csc(N)n3)C(=O)N12 (stereo partly drawn) [Example 10, 1-(3-methylpentanoyloxy)ethyl 7β-[2-(2-aminothiazol-4-yl)acetamido]-3-[[[1-(2-dimethylaminoethyl)-1H-tetrazol-5-yl]-thio]methyl]ceph-3-em-4-carboxylate] | 93.2 | 36200 |  |  |  | 
CCCCCCCC(=O)OC(C)OC(=O)C1=C(CSc2nnnn2CCN(C)C)CS[C@@H]2[C@H](NC(=O)Cc3csc(N)n3)C(=O)N12 (stereo partly drawn) [Example 13, 1-(n-octanoyloxy)ethyl 7β-[2-(2-aminothiazol-4-yl)acetamido]-3-[[[1-(2-dimethylaminoethyl)-1H-tetrazol-5-yl]thio]methyl]ceph-3-em-4-carboxylate] | 60.6 | 23500 |  |  |  | 
CCCC(CCC)C(=O)OC(C)OC(=O)C1=C(CSc2nnnn2CCN(C)C)CS[C@@H]2[C@H](NC(=O)Cc3csc(N)n3)C(=O)N12 (stereo partly drawn) [Example 14, 1-(2-n-propylpentanoyloxy)ethyl 7β-[2-(2-aminothiazol-4-yl)acetamido]-3-[[[1-(2-dimethylaminoethyl)-1H-tetrazol-5-yl)thio]methyl]ceph-3-em-4-carboxylate] | 66.0 | 25600 |  |  |  | 
CCCCCC(=O)OC(CC)OC(=O)C1=C(CSc2nnnn2CCN(C)C)CS[C@@H]2[C@H](NC(=O)Cc3csc(N)n3)C(=O)N12 (stereo partly drawn) [Example 16, 1-(n-hexanoyloxy)propyl 7β-[2-(2-aminothiazol-4-yl)acetamido]-3-[[[1-(2-dimethylaminoethyl)-1H-tetrazol-5-yl]thio]methyl]ceph-3-em-4-carboxylate] | 65.0 | 25200 |  |  |  | 
CCC(CC)C(=O)OC(C)OC(=O)C1=C(CSc2nnnn2CCN(C)C)CS[C@@H]2[C@H](NC(=O)Cc3csc(N)n3)C(=O)N12 (stereo partly drawn) [Example 21, 1-(2-ethylbutyryloxy)ethyl 7β-[2-(2-aminothiazol-4-yl)acetamido]-3-[[[1-(2-dimethylaminoethyl)-1H-tetrazol-5-yl]thio]methyl]ceph-3-em-4-carboxylate] | 100.0 | 38800 |  |  |  | 
CCC(CC)CC(=O)OC(C)OC(=O)C1=C(CSc2nnnn2CCN(C)C)CS[C@@H]2[C@H](NC(=O)Cc3csc(N)n3)C(=O)N12 (stereo partly drawn) [Example 23, 1-(3-ethylpentanoyloxy)ethyl 7β-[2-(2-aminothiazol-4-yl)acetamido]-3-[[[1-(2-dimethylaminoethyl)-1H-tetrazol-5-yl]thio]methyl]ceph-3-em-4-carboxylate] | 78.2 | 30300 |  |  |  | 
CN(C)CCn1nnnc1SCC1=C(C(=O)O)N2C(=O)[C@@H](NC(=O)Cc3csc(N)n3)[C@H]2SC1 [non-ester form of Compound I, 7β-[2-(2-aminothiazol-4-yl)acetamido]-3-[[[1-(2-dimethylaminoethyl)-1H-tetrazol-5-yl]thio]methyl]ceph-3-em-4-carboxylic acid, reference compound] |  |  | excellent antibacterial activity | excellent antibacterial activity | 38800 | 100
